{"source": "patent US20130296393A1", "about": "“METHOD FOR CONTROLLING CLUBROOT” (ISHIHARA SANGYO KAISHA, LTD., priority 2011, published 2013)", "format_in_all_cases": "in vivo", "key": {"Plasmodiophora brassicae [1]": {"test_system": "Plasmodiophora brassicae", "experiment": "Cabbage clubroot control test, pot test (Example 1 / Comparative Example 1)", "set-up": "key to Disease control value: {1−(treatment severity/control severity)}×100; key to Disease severity: Σ(plants×index 0-4)/(plants×4)×100; 0 = no clubroot", "settings": "for Disease control value / Disease severity: 60 days after settled planting", "method": "A chemical solution for spraying at 50 ppm was prepared by diluting 9.4% w/w cyazofamid (Ranman [trade name] flowable, manufactured by Ishihara Sangyo Kaisha Ltd.) with water.\nA spore suspension of Plasmodiophora brassicae (fungus density: 1×10^5 fungi/g dry soil) was inoculated into a sterilization soil adjusted to pH of 6.2 with Sandoseto and after introducing the resulting test soil into a 1/5000 a pot, a cabbage (variety: Okina) seedling grown in a cell seedling tray (128 cells/seedling box) was settled-planted by establishing five plantings for each test section having a size of 0.02 m^2 per one plant. Just after the settled planting, 3 days, 7 days, 10 days and 14 days after the settled planting, the chemical solution for spraying prepared in (1) was applied by soil drench at a ratio of 250 ml/plant. Sixty days after the settled planting, the number of each index of clubroot adhesion to the root was investigated. For comparison, the same test was carried out on a control section where a soil drench treatment with the chemical solution for spraying was not applied.\nThe test was carried out by the same method as in Example 1(2) except that in place of the soil drench treatment with the chemical solution for spraying, 30 kg/10 a of 0.3% flusulfamide (dust formulation of Nebijin [trade name], manufactured by Mitsui Chemicals Agro, Inc.) was applied to the test soil just before settled planting and incorporated into the soil by means of a small mixer (interfusion depth: 15 cm).\nIn Example 1 and Comparative Example 1, the adhesion of clubroot was investigated by pulling out the root of cabbage. The adhesion of clubroot was investigated by calculating the disease severity using the following formula. In addition, the weight of cabbage in the aerial part was measured. Furthermore, the test result was shown by the average value of five plantings.\n(§1) Disease severity={Σ(number of each index of diseased plants×disease index)/(number of plants surveyed×4)}×100\n(§2) Disease control value={1−(treatment disease severity/control disease severity)}×100\n(§3) 0: No adhesion of clubroot, 1: clubroot adhesion to lateral root, 2: clubroot adhesion to the entire lateral root or clubroot adhesion to a part of tap root, 3: adhesion of large clubroot to tap root, and 4: clubroot adhesion to the entire tap root."}, "Plasmodiophora brassicae [2]": {"test_system": "Plasmodiophora brassicae", "experiment": "Cabbage clubroot control test, pot test, cyazofamid vs chlorothalonil (Example 3 / Comparative Example 3)", "set-up": "key to Disease control value: control value = (1 − treated/control severity) × 100; key to Disease severity: severity = Σ(plants × index 0-4)/(plants × 4) × 100", "settings": "for Disease control value / Disease severity: 57 days after settled planting", "text": "as §1, §2, §3\nA spore suspension of Plasmodiophora brassicae (fungus density: 1×10^5 fungi/g dry soil) was inoculated into a sterilization soil adjusted to pH of 6.0 with Sandoseto and after introducing the resulting test soil into a 1/5000 a pot, a cabbage (variety: Okina) seedling grown in a cell seedling tray (128 cells/seedling box) was settled-planted by establishing five plantings for each test section having a size of 0.02 m^2 for one plant. Immediately, 4 days, 7 days and 14 days after settled planting, the chemical solution for spraying prepared by the same method as in Example 1(1) was drenched into the soil in a ratio of 250 ml/plant. Fifty-seven days after the settled planting, the number of each index of clubroot adhesion to the root was investigated. For comparison, the same test was carried out on a control section where a soil drench treatment with the chemical solution for spraying was not applied.\nA chemical solution for spraying in a concentration of 800 ppm was prepared by diluting 40% chlorothalonil (Daconil 1000 [trade name], manufactured by SDS K.K.) with water.\nThe test was carried out by the same procedure as in Example 3 except that the chemical solution (cyazofamid) for spraying was replaced by the chemical solution (chlorothalonil) for spraying prepared in Comparative Example 3(1).\nThe disease severity and disease control value of Example 3 and Comparative Example 3 were determined by the same methods as in Example 1 and Comparative Example 1. In addition, the weight of cabbage in the aerial part was measured. Furthermore, the test result was shown by the average value of five plantings."}, "Plasmodiophora brassicae [3]": {"test_system": "Plasmodiophora brassicae", "experiment": "Influence of rainfall on clubroot control effect in cabbage (Example 4 / Comparative Example 4)", "set-up": "key to Disease severity: 0–100 index: Σ(plants×disease index 0–4)/(plants×4)×100; key to Disease control value: {1−(treatment severity/control severity)}×100; 100 = full control", "settings": "pot; for Disease control value / Disease severity: 67 days after settled planting", "method": "as §1, §2, §3\nThe test was carried out by the same method as in Example 3 except for preparing an area subjected to a rainfall treatment of 20 mm by means of a rainfall apparatus (a treatment at a rate of 10 mm/hour for 2 hours) the day before treatment, and an area not subjected to the rainfall treatment. Sixty-seven days after the settled planting, the number of each index of clubroot adhesion to the root was investigated. For comparison, the same test was carried out on a control section where a soil drench treatment with the chemical solution for spraying was not applied.\nThe test was carried out by the same method as in Example 4 except that in place of the soil drench treatment with the chemical solution for spraying, 30 kg/10 a of 0.3% flusulfamide (dust formulation of Nebijin [trade name], manufactured by Mitsui Chemicals Agro, Inc.) was applied to the test soil just before the settled planting and incorporated into the soil by means of a small mixer (interfusion depth: 15 cm).\nThe disease severity and disease control value of Example 4 and Comparative Example 4 were determined by the same methods as in Example 1 and Comparative Example 1. In addition, the weight of cabbage in the aerial part was measured. Furthermore, the test result was shown by the average value of five plantings."}, "[4]": {"settings": "50 ppm soil drench 250 ml/plant 3 days after settled planting"}, "[5]": {"settings": "50 ppm soil drench 250 ml/plant 7 days after settled planting"}, "[6]": {"settings": "50 ppm soil drench 250 ml/plant 10 days after settled planting"}, "[7]": {"settings": "50 ppm soil drench 250 ml/plant 14 days after settled planting"}, "[8]": {"settings": "50 ppm soil drench 250 ml/plant just after settled planting"}, "[9]": {"settings": "50 ppm soil drench 250 ml/plant 4 days after settled planting"}, "[10]": {"settings": "with rainfall treatment 20 mm, 50 ppm soil drench 250 ml/plant 4 days after settled planting"}, "[11]": {"settings": "with rainfall treatment 20 mm, 50 ppm soil drench 250 ml/plant 7 days after settled planting"}, "[12]": {"settings": "with rainfall treatment 20 mm, 50 ppm soil drench 250 ml/plant 14 days after settled planting"}, "[13]": {"settings": "with rainfall treatment 20 mm, 50 ppm soil drench 250 ml/plant just after settled planting"}, "[14]": {"settings": "without rainfall treatment, 50 ppm soil drench 250 ml/plant just after settled planting"}}, "data": [{"smiles": "Cc1ccc(-c2c(Cl)nc(C#N)n2S(=O)(=O)N(C)C)cc1", "note": "[cyazofamid, 4-chloro-2-cyano-1-dimethylsulfamoyl-5-(4-methylphenyl)imidazole]", "values": [{"measurement": "Weight in the aerial part", "setting": "Plasmodiophora brassicae [1]; [4]", "value": 156, "unit": "g"}, {"measurement": "Disease control value", "setting": "Plasmodiophora brassicae [1]; [4]", "value": 75}, {"measurement": "Disease severity", "setting": "Plasmodiophora brassicae [1]; [4]", "value": 20}, {"measurement": "Weight in the aerial part", "setting": "Plasmodiophora brassicae [1]; [5]", "value": 168, "unit": "g"}, {"measurement": "Disease control value", "setting": "Plasmodiophora brassicae [1]; [5]", "value": 69}, {"measurement": "Disease severity", "setting": "Plasmodiophora brassicae [1]; [5]", "value": 25}, {"measurement": "Weight in the aerial part", "setting": "Plasmodiophora brassicae [1]; [6]", "value": 164, "unit": "g"}, {"measurement": "Disease control value", "setting": "Plasmodiophora brassicae [1]; [6]", "value": 50}, {"measurement": "Disease severity", "setting": "Plasmodiophora brassicae [1]; [6]", "value": 40}, {"measurement": "Weight in the aerial part", "setting": "Plasmodiophora brassicae [1]; [7]", "value": 163, "unit": "g"}, {"measurement": "Disease control value", "setting": "Plasmodiophora brassicae [1]; [7]", "value": 31}, {"measurement": "Disease severity", "setting": "Plasmodiophora brassicae [1]; [7]", "value": 55}, {"measurement": "Weight in the aerial part", "setting": "Plasmodiophora brassicae [1]; [8]", "value": 164, "unit": "g"}, {"measurement": "Disease control value", "setting": "Plasmodiophora brassicae [1]; [8]", "value": 81}, {"measurement": "Disease severity", "setting": "Plasmodiophora brassicae [1]; [8]", "value": 15}, {"measurement": "Weight in the aerial part", "setting": "Plasmodiophora brassicae [2]; [9]", "value": 109, "unit": "g"}, {"measurement": "Disease control value", "setting": "Plasmodiophora brassicae [2]; [9]", "value": 81}, {"measurement": "Disease severity", "setting": "Plasmodiophora brassicae [2]; [9]", "value": 15}, {"measurement": "Weight in the aerial part", "setting": "Plasmodiophora brassicae [2]; [5]", "value": 109, "unit": "g"}, {"measurement": "Disease control value", "setting": "Plasmodiophora brassicae [2]; [5]", "value": 88}, {"measurement": "Disease severity", "setting": "Plasmodiophora brassicae [2]; [5]", "value": 10}, {"measurement": "Weight in the aerial part", "setting": "Plasmodiophora brassicae [2]; [7]", "value": 91, "unit": "g"}, {"measurement": "Disease control value", "setting": "Plasmodiophora brassicae [2]; [7]", "value": 0}, {"measurement": "Disease severity", "setting": "Plasmodiophora brassicae [2]; [7]", "value": 80}, {"measurement": "Weight in the aerial part", "setting": "Plasmodiophora brassicae [2]; [8]", "value": 104, "unit": "g"}, {"measurement": "Disease control value", "setting": "Plasmodiophora brassicae [2]; [8]", "value": 100}, {"measurement": "Disease severity", "setting": "Plasmodiophora brassicae [2]; [8]", "value": 0}, {"measurement": "Control effect", "setting": "Plasmodiophora brassicae [2]; 50 ppm soil drench, treatment within 7 days after settled planting", "value": "a control effect which was sufficient for practical use was obtained"}, {"measurement": "Weight in the aerial part", "setting": "Plasmodiophora brassicae [3]; [10]", "value": 133, "unit": "g"}, {"measurement": "Disease control value", "setting": "Plasmodiophora brassicae [3]; [10]", "value": 100}, {"measurement": "Disease severity", "setting": "Plasmodiophora brassicae [3]; [10]", "value": 0}, {"measurement": "Weight in the aerial part", "setting": "Plasmodiophora brassicae [3]; [11]", "value": 129, "unit": "g"}, {"measurement": "Disease control value", "setting": "Plasmodiophora brassicae [3]; [11]", "value": 93}, {"measurement": "Disease severity", "setting": "Plasmodiophora brassicae [3]; [11]", "value": 5}, {"measurement": "Weight in the aerial part", "setting": "Plasmodiophora brassicae [3]; [12]", "value": 103, "unit": "g"}, {"measurement": "Disease control value", "setting": "Plasmodiophora brassicae [3]; [12]", "value": 29}, {"measurement": "Disease severity", "setting": "Plasmodiophora brassicae [3]; [12]", "value": 50}, {"measurement": "Weight in the aerial part", "setting": "Plasmodiophora brassicae [3]; [13]", "value": 121, "unit": "g"}, {"measurement": "Disease control value", "setting": "Plasmodiophora brassicae [3]; [13]", "value": 100}, {"measurement": "Disease severity", "setting": "Plasmodiophora brassicae [3]; [13]", "value": 0}, {"measurement": "Control effect", "setting": "Plasmodiophora brassicae [3]; with rainfall treatment, soil drench within 7 days after settled planting", "value": "a practical control effect was obtained"}, {"measurement": "Weight in the aerial part", "setting": "Plasmodiophora brassicae [3]; [14]", "value": 129, "unit": "g"}, {"measurement": "Disease control value", "setting": "Plasmodiophora brassicae [3]; [14]", "value": 100}, {"measurement": "Disease severity", "setting": "Plasmodiophora brassicae [3]; [14]", "value": 0}]}]}
